Data: patent US10980766B2, “Entacapone-related compounds to treat macular degeneration” (National Institute of Biological Sciences, Beijing, priority 2016, dated 2021)
Marks after values point to notes of the source that are not given here.

System: hypoxia-induced retinopathy zebrafish model
Assay: hypoxia-induced retinopathy zebrafish model (cobalt chloride induced)
Format: in vivo
Details: for Blood vessel diameter (mean ± SE): cobalt chloride co-treatment for 4 days, n=10; for Recovery rate (%): blood vessel diameter recovery
Experimental: We measured the therapeutic efficacy of entacapone and representative entacapone derivatives in hypoxia-induced retinopathy zebrafish model (Cao et al., Hypoxia-induced retinopathy model in adult zebrafish. Nat Protoc 2010, 5 (12), 1903-10).
We measured the therapeutic effect of entacapone and several representative entacapone derivatives on hypoxia-induced retinopathy zebrafish model. The transgenic Tg (flila:EGFP) zebrafish were treated with cobalt chloride for 4 days to induce retinopathy. […] As positive control, zebrafish were treated with cobalt chloride and 100 μL/mL eye-drops augentropfen stulln mono containing 0.3 μg/mL digitalin and 2 μg/mL esculin.

[1] = 10 μM as printed in text, 4 days

Question: How did the “Blood vessel diameter (mean ± SE)” value (5 μM) turn out when CCN(CC)C(=O)/C(C#N)=C/c1cc(O)c(O)c([N+](=O)[O-])c1 [Entacapone, (2E)-2-cyano-3-(3,4-dihydroxy-5-nitrophenyl)-N,N-diethylprop-2-enamide] was run?
Answer: 19.33 ± 0.52 pixel

Question: And the “Blood vessel diameter (mean ± SE)” value (5 μM, listed as entacapone)?
Answer: 19.33 pixel

Question: What about the “blood vessel diameter recovery rate” value [1] of the same molecule?
Answer: 94%

Question: What about the retinal blood diameter [1] of the same molecule?
Answer: 17.39

Question: And the “Blood vessel diameter (mean ± SE)” value (15 μM)?
Answer: 17.39 ± 0.49 pixel

Question: What about the “Blood vessel diameter (mean ± SE)” value (50 μM) of the same molecule?
Answer: 17.47 ± 0.29 pixel

Question: And the “Blood vessel diameter (mean ± SE)” value (50 μM, listed as entacapone)?
Answer: 17.47 pixel

Question: And the “eye ball volume (in words)” value (after treatment, compared with model group)?
Answer: larger

Question: What about the “Recovery rate (%)” value (5 μM, 4 days) of the same molecule?
Answer: 58*** %

Question: And the “Recovery rate (%)” value (5 μM, 4 days, listed as entacapone)?
Answer: 58%

Question: What about the “Recovery rate (%)” value (15 μM, 4 days) of the same molecule?
Answer: 94*** %

Question: And the “Recovery rate (%)” value (50 μM, 4 days)?
Answer: 93*** %

Question: What about the “Recovery rate (%)” value (50 μM, 4 days, listed as entacapone) of the same molecule?
Answer: 93%

Question: What about the “retinal angiogenesis and retina structure (in words)” value (compared with model group) of the same molecule?
Answer: suppress hypoxia-induced retinal neoangiogenesis and improve histopathology of retinopathy

Question: What about the “inner plexiform layer and outer plexiform layer thickness (in words)” value (treated groups compared with model group) of the same molecule?
Answer: thicker
